The record followed here is ChEMBL document CHEMBL1126682, “Quinolone antimicrobial agents substituted with morpholines at the 7-position. Syntheses and structure-activity relationships” (J Med Chem, 1993).

Converted amounts (≈) assume the structure as drawn.

Data set [1] relates to Escherichia coli. As to the kind of experiment: Minimum inhibitory concentration against Escherichia coli KC14 strain. In kind it is functional.
The test system of another data set is Enterococcus faecalis. Nature of the data set: Minimum inhibition concentration against Enterococcus faecalis LS-101 strain. In kind it is functional.
Data set [2] deals with GABA-A receptor; anion channel. Nature of the data set: Inhibition of [3H]muscimol binding to GABA A receptor 4-biphenylacetic acid at 10 e-4 M. The class given is protein-complex assay.
In data set [3] the target is T1, GABA-A receptor; anion channel (Homo sapiens) (UniProt P14867+P47870+P18507+P28472+P48169+Q99928+Q9UN88+P34903+O00591+O14764+Q8N1C3+P18505+P78334+P47869+P31644+Q16445). As to the kind of experiment: Percentage of GABA-induced chloride currents with 10 e-5 M 4-biphenylacetic acid. Particulars: Bull Frog. The class given is functional.
Data set [4] concerns the target T1, GABA-A receptor; anion channel (Homo sapiens). Nature of the data set: Percentage of GABA-induced chloride currents with compound alone at 10 e-4 M. Particulars: Bull Frog. The class given is functional.
The test system of data set [5] is Mus musculus. As to the kind of experiment: Percentage of mice with convulsion (400 mg/kg fenbufen). In kind it is functional.
For data set [6], the system named is Mus musculus. As to the kind of experiment: Percentage of mice with convulsion with compound alone at 400 mg/kg. In kind it is functional.
The subject of data set [7] is Escherichia coli. Nature of the data set: Effective dose against Escherichia coli KC14 strain in mouse. In kind it is functional.
Data set [8] relates to Staphylococcus aureus. As to the kind of experiment: Effective dose against Staphylococcus aureus smith strain in mouse. The class given is functional.
In a further data set the test system is Pseudomonas aeruginosa. As to the kind of experiment: Minimum inhibition concentration against Pseudomonas aeruginosa U-31 strain. The class given is functional.
Data set [9] relates to Staphylococcus aureus. Nature of the data set: Minimum inhibition concentration against Staphylococcus aureus FDA209P strain. In kind it is functional.
In data set [10] the test system is Staphylococcus aureus. As to the kind of experiment: Minimum inhibitory concentration against Staphylococcus aureus Smith. In kind it is functional.
The next data set has as its system Streptococcus pneumoniae. Nature of the data set: Minimum inhibition concentration against Streptococcus pneumoniae Type I strain. The class given is functional.
Data set [11] has as its system Staphylococcus aureus. Nature of the data set: Minimum inhibition concentration against Staphylococcus aureus MRSA strain. In kind it is functional.
In data set [12] the target is GABA-A receptor; anion channel. Nature of the data set: Inhibition of [3H]muscimol binding to GABA A receptor with compound alone at 10 e-4 M. In kind it is protein-complex assay.
Data set [13] in a line: The compound was evaluated for the solubility in water at 25 degrees Centigrade. The class given is ADME.
The subject of data set [14] is Escherichia coli. Nature of the data set: Minimum inhibition concentration against Escherichia coli NIHJ JC-2 strain. The class given is functional.
For data set [15], the target named is T1, GABA-A receptor; anion channel (Homo sapiens). Nature of the data set: Percentage of GABA-induced chloride currents with 10e-4 M 4-biphenylacetic acid. The class given is functional. The conditions noted are these: Bull Frog.

By MIC is commonly meant the smallest concentration in the dilution series that meets the test's criterion for growth inhibition. The IC50 is the midpoint of a concentration-inhibition curve. For orientation: solubility means the dissolved amount per volume that the medium holds. A lower solubility goes with little dissolved substance.

Regarding `O=C(O)c1cn(C2CC2)c2cc(N3CCNCC3)c(F)cc2c1=O` [CIPROFLOXACIN], the MIC in the data set with Escherichia coli [1] was < 0.006 µg/mL; against Enterococcus faecalis, 0.39 µg/mL (≈ 1.18 µM); against Pseudomonas aeruginosa, 0.1 µg/mL (≈ 0.302 µM); with Staphylococcus aureus [9], 0.1 µg/mL (≈ 0.302 µM); against Staphylococcus aureus [10], 0.1 µg/mL (≈ 0.302 µM); against Streptococcus pneumoniae, 0.39 µg/mL (≈ 1.18 µM). The lowest concentration to inhibit growth against Staphylococcus aureus [11] (MIC) was 1.56 µg/mL (≈ 4.71 µM). For the same compound, the results for the concentration for half-maximal inhibition (IC50) in data set [2] and in data set [12] were 0.41 µM and 100 µM, respectively. For the same compound, the Currents in data set [3] came out at 0%; in [4], 64%. Besides, the Convulsion in the data set on Mus musculus [5] was found to be 63%; in the data set with Mus musculus [6], 0%. Further, the values for the ED50 in the data set on Escherichia coli [7] and in the data set with Staphylococcus aureus [8] were 0.007 mg mouse-1 and 0.354 mg mouse-1, respectively.
In data set [13], `CNCC1CN(c2c(F)cc3c(=O)c(C(=O)O)cn(C4CC4)c3c2F)CCO1` (stereo not given) returned a solubility of 630 µg/mL (≈ 1600 µM). Moreover, the MIC against Escherichia coli [14] was found to be 0.1 µg/mL (≈ 0.254 µM); with Escherichia coli [1] it was 0.05 µg/mL (≈ 0.127 µM); against Enterococcus faecalis, 0.1 µg/mL (≈ 0.254 µM); in the data set on Pseudomonas aeruginosa, 3.13 µg/mL (≈ 7.96 µM); in the data set on Staphylococcus aureus [9], 0.025 µg/mL (≈ 0.0636 µM); against Staphylococcus aureus [10], 0.012 µg/mL (≈ 0.0305 µM). This compound also registered an MIC against Streptococcus pneumoniae of 0.1 µg/mL (≈ 0.254 µM). Further, the IC50 in data set [2] (read-out: IC50) and in data set [12] was > 100 µM each time. For the same compound, the Currents was found to be 90% in [3], 78% in [15] and 94% in data set [4]. Further, the Convulsion in the data set on Mus musculus [5] and in the data set on Mus musculus [6] was 0% in each case. Also, the ED50 with Escherichia coli [7] is on record as 0.024 mg mouse-1; in the data set on Staphylococcus aureus [8], 0.044 mg mouse-1.
With `O=C(O)c1cn(C2CC2)c2c(F)c(N3CCOC(CN4CCCCC4)C3)c(F)cc2c1=O` (stereo not given), the MIC worked out at 3.13 µg/mL (≈ 6.99 µM) in the data set on Escherichia coli [14]; 25 µg/mL (≈ 55.9 µM) against Enterococcus faecalis; 50 µg/mL (≈ 112 µM) against Pseudomonas aeruginosa; 0.78 µg/mL (≈ 1.74 µM) against Staphylococcus aureus [9]; 6.25 µg/mL (≈ 14 µM) with Streptococcus pneumoniae.
As for `CCNCC1CN(c2c(F)cc3c(=O)c(C(=O)O)cn(C4CC4)c3c2F)CCO1` (stereo not given), the MIC against Escherichia coli [14] is 0.1 µg/mL (≈ 0.245 µM); against Enterococcus faecalis, 0.2 µg/mL (≈ 0.491 µM); against Pseudomonas aeruginosa it was 3.13 µg/mL (≈ 7.68 µM); against Staphylococcus aureus [9], 0.1 µg/mL (≈ 0.245 µM); in the data set on Streptococcus pneumoniae, 0.05 µg/mL (≈ 0.123 µM).
Take `NCCC1CN(c2c(F)cc3c(=O)c(C(=O)O)cn(C4CC4)c3c2F)CCO1` (stereo not given): the MIC against Escherichia coli [14] was 1.56 µg/mL (≈ 3.97 µM); in the data set with Enterococcus faecalis it was 0.39 µg/mL (≈ 0.991 µM); against Pseudomonas aeruginosa, 12.5 µg/mL (≈ 31.8 µM); in the data set with Staphylococcus aureus [9], 0.2 µg/mL (≈ 0.508 µM); with Streptococcus pneumoniae, 0.39 µg/mL (≈ 0.991 µM).
On to `CC1COc2c(N3CCN(C)CC3)c(F)cc3c(=O)c(C(=O)O)cn1c23` (stereo not given) [OFLOXACIN], for which the MIC was found to be 0.1 µg/mL (≈ 0.277 µM) against Escherichia coli [14]; 0.05 µg/mL (≈ 0.138 µM) with Escherichia coli [1]; 0.78 µg/mL (≈ 2.16 µM) against Enterococcus faecalis; 0.78 µg/mL (≈ 2.16 µM) in the data set on Pseudomonas aeruginosa; 0.2 µg/mL (≈ 0.553 µM) with Staphylococcus aureus [9]; 0.2 µg/mL (≈ 0.553 µM) in the data set on Staphylococcus aureus [10]. For the same compound, inhibition of growth in the data set with Streptococcus pneumoniae (MIC) required 0.78 µg/mL (≈ 2.16 µM). The IC50 in [2] (read-out: IC50) is 11 µM; in data set [12], > 100 µM. Moreover, the results for the Currents in [3], in data set [15] and in data set [4] were 87%, 39% and 94%, respectively. The Convulsion in the data set with Mus musculus [5] and in the data set with Mus musculus [6] was 0% throughout. Also, the ED50 worked out at 0.009 mg mouse-1 with Escherichia coli [7] and 0.27 mg mouse-1 with Staphylococcus aureus [8].
Turning to `CN(Cc1ccccc1)CC1CN(c2c(F)cc3c(=O)c(C(=O)O)cn(C4CC4)c3c2F)CCO1` (stereo not given), the MIC in the data set with Escherichia coli [14] was 1.56 µg/mL (≈ 3.23 µM); against Enterococcus faecalis, 1.56 µg/mL (≈ 3.23 µM); against Pseudomonas aeruginosa, 25 µg/mL (≈ 51.7 µM); against Staphylococcus aureus [9], 0.39 µg/mL (≈ 0.807 µM); in the data set on Streptococcus pneumoniae, 0.78 µg/mL (≈ 1.61 µM).
In [13], `NCC1CN(c2cc3c(cc2F)c(=O)c(C(=O)O)cn3C2CC2)CCO1` (stereo not given) registered a solubility of 390 µg/mL (≈ 1080 µM). The MIC was 0.2 µg/mL (≈ 0.553 µM) against Escherichia coli [14]; 0.1 µg/mL (≈ 0.277 µM) against Escherichia coli [1]; 0.2 µg/mL (≈ 0.553 µM) against Enterococcus faecalis; 1.56 µg/mL (≈ 4.32 µM) in the data set on Pseudomonas aeruginosa; 0.2 µg/mL (≈ 0.553 µM) with Staphylococcus aureus [9]; 0.05 µg/mL (≈ 0.138 µM) in the data set on Staphylococcus aureus [10]. Further, the MIC with Streptococcus pneumoniae turned out to be 0.39 µg/mL (≈ 1.08 µM). In addition, the IC50 in data set [2] (read-out: IC50) and in [12] was > 100 µM in each case. Moreover, the Currents in [3] was determined as 90%; in data set [15], 81%; in [4], 93%. For the same compound, the Convulsion with Mus musculus [5] and in the data set on Mus musculus [6] was 0% throughout. For the same compound, the results for the ED50 with Escherichia coli [7] and with Staphylococcus aureus [8] were 0.139 mg mouse-1 and 0.835 mg mouse-1, respectively.
With `CCN(CC)CC1CN(c2c(F)cc3c(=O)c(C(=O)O)cn(C4CC4)c3c2F)CCO1` (stereo not given), the MIC is 0.39 µg/mL (≈ 0.896 µM) with Escherichia coli [14]; 0.39 µg/mL (≈ 0.896 µM) against Enterococcus faecalis; 6.25 µg/mL (≈ 14.4 µM) with Pseudomonas aeruginosa; 0.1 µg/mL (≈ 0.23 µM) against Staphylococcus aureus [9]; 0.1 µg/mL (≈ 0.23 µM) with Streptococcus pneumoniae.
